Consider 15 compounds from patent US20240360178A1, “MACROCYCLIC IMMUNOMODULATORS” (Bristol-Myers Squibb Company, priority 2021, published 2024).

Positions of bridges follow the written chain, without caps; N, C: chain ends. Non-standard residues stand in square brackets, D forms with d. Residues, ends and D or L forms follow the SMILES beside them. ξ: configuration not given here. *: point of attachment. Bip(2'-Me) = Cc1ccccc1-c1ccc(C[C@H](N)C(=O)O)cc1; Phe(4-CH2NH2) = NCc1ccc(C[C@H](N)C(=O)O)cc1; Bip = N[C@@H](Cc1ccc(-c2ccccc2)cc1)C(=O)O; Phe(3-Me) = Cc1cccc(C[C@H](N)C(=O)O)c1; d(cisHyp) = O=C(O)[C@H]1C[C@@H](O)CN1; NMeF = CN[C@@H](Cc1ccccc1)C(=O)O; 4Pal = N[C@@H](Cc1ccncc1)C(=O)O; Cha = N[C@@H](CC1CCCCC1)C(=O)O; Cit = NC(=O)NCCC[C@H](N)C(=O)O; Carboxymethyl = O=C(O)C*; NMeA = CN[C@@H](C)C(=O)O; Orn = NCCC[C@H](N)C(=O)O; Dab = NCC[C@H](N)C(=O)O; ξE = NC(CCC(=O)O)C(=O)O; Dap = NC[C@H](N)C(=O)O; ξV = CC(C)C(N)C(=O)O; Sar = CNCC(=O)O

The assay has as its target T1, human PD-1 (Jurkat-PD-1 cells) / PE-labeled human PD-L1-Ig (Homo sapiens, UniProt Q15116).
T1 construct: expressed in transfected cells; host or cells: Jurkat cell line over-expressing human PD-1
Nature of the assay: Jurkat-PD-1 Cell Binding High-Content Screening Assay (CBA); Jurkat hPD1-PDL1 assay. As to conditions: Jurkat cell line over-expressing human PD-1; PE-labeled PD-L1-Ig 20 nM final; compound incubated 2 hours at 37° C.; read-out: Jurkat HPD1-PDL1 IC50. An outline of the steps:
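Jurkat cells over-expressing human PD-1, seeded in DMEM with 10% fetal calf serum, were preincubated with compound for 2 hours at 37° C. PE-labeled human PD-L1-Ig was then added at 20 nM final, and cell-bound fluorescence was read by high-content imaging.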

T1 sequence (Q15116 25-288): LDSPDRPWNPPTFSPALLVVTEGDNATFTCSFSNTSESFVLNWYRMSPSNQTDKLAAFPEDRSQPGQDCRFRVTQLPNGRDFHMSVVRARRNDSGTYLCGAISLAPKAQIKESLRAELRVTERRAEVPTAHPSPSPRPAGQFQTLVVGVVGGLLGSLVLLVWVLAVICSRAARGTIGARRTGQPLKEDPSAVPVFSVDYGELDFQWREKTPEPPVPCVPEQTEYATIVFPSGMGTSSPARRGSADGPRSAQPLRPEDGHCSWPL

For `CC(C)C[C@@H]1NC(=O)C(CCC(=O)O)NC(=O)[C@H](Cc2ccccc2)N(C)C(=O)[C@H](C)N(C)C(=O)[C@H](CCCNC(=N)N)NC(=O)[C@H](Cc2ccc(-c3ccccc3)cc2)NC(=O)[C@H](C(C)C)NC(=O)[C@H](Cc2c[nH]c3ccccc23)NC(=O)[C@H](CC(=O)O)NC(=O)[C@H](Cc2ccc(O)cc2)NC(=O)[C@H](Cc2ccccc2)NC(=O)CSC[C@@H](C(=O)NCC(N)=O)NC(=O)[C@H](CO)NC(=O)[C@H](C(C)C)NC1=O` (stereo partly drawn) [Example 1221] ({CH2CO}-FYDWV[Bip]R[NMeA][NMeF][ξE]LVSCG-NH2; thioether N-14), the IC50 came out at 0.5 µM. As for `CC(C)C[C@@H]1NC(=O)[C@H](Cc2c[nH]c3ccccc23)NC(=O)[C@H](CC(=O)O)NC(=O)[C@H](Cc2ccc(O)cc2)NC(=O)[C@H](Cc2ccccc2)NC(=O)CSC[C@@H](C(=O)N[C@@H](C)C(N)=O)NC(=O)[C@H](CCC(N)=O)NC(=O)[C@H](C(C)C)NC(=O)[C@H](CC(C)C)NC(=O)[C@H](CC(N)=O)NC(=O)CN(C)C(=O)[C@H](C)N(C)C(=O)[C@H](C(C)C)NC(=O)[C@H](Cc2ccc(-c3ccccc3)cc2)NC1=O` [Example 1136] ({CH2CO}-FYDWL[Bip]V[NMeA][Sar]NLVQCA-NH2; thioether N-14), the figure is 0.56 µM. Next, `CC(C)C[C@@H]1NC(=O)[C@H](Cc2c[nH]c3ccccc23)NC(=O)[C@H](CC(=O)O)NC(=O)[C@H](Cc2ccc(CN)cc2)NC(=O)[C@H](Cc2ccccc2)NC(=O)CSC[C@@H](C(=O)N[C@@H](C)C(N)=O)NC(=O)[C@H](CO)NC(=O)[C@H](C(C)C)NC(=O)[C@H](CC(C)C)NC(=O)[C@H](CC(N)=O)NC(=O)CN(C)C(=O)[C@H](C)N(C)C(=O)[C@H](C(C)C)NC(=O)[C@H](Cc2ccc(-c3ccccc3)cc2)NC1=O` [Example 1101] ({CH2CO}-F[Phe(4-CH2NH2)]DWL[Bip]V[NMeA][Sar]NLVSCA-NH2; thioether N-14): 0.3 µM; `CC(C)C[C@@H]1NC(=O)[C@H](Cc2c[nH]c3ccccc23)NC(=O)[C@H](CC(=O)O)NC(=O)[C@H](Cc2ccc(O)cc2)NC(=O)[C@H](CC(N)=O)NC(=O)CSC[C@@H](C(=O)N[C@@H](C)C(N)=O)NC(=O)[C@H]([C@@H](C)O)NC(=O)[C@H](C(C)C)NC(=O)[C@H](CC(C)C)NC(=O)[C@H](CC(N)=O)NC(=O)[C@H]2CCCN2C(=O)[C@H](CCCN)NC(=O)[C@H](C(C)C)NC(=O)[C@H](Cc2ccc(-c3ccccc3)cc2)NC1=O` [Example 1426] ({CH2CO}-NYDWL[Bip]V[Orn][dP]NLVTCA-NH2; thioether N-14): 0.22 µM. Consider `CC(C)C[C@@H]1NC(=O)[C@H](Cc2c[nH]c3ccccc23)NC(=O)[C@H](CC(=O)O)NC(=O)[C@H](Cc2ccc(O)cc2)NC(=O)[C@H](Cc2ccccc2)NC(=O)CSC[C@@H](C(=O)N[C@@H](C)C(N)=O)NC(=O)[C@H](CO)NC(=O)[C@H](C(C)C)NC(=O)[C@H](CC(C)C)NC(=O)[C@H](CCN)NC(=O)[C@H]2CCCN2C(=O)[C@H](C)N(C)C(=O)[C@H](C(C)C)NC(=O)[C@H](Cc2ccc(-c3ccccc3)cc2)NC1=O` [Example 1397] ({CH2CO}-FYDWL[Bip]V[NMeA][dP][Dab]LVSCA-NH2; thioether N-14), for which the IC50 was 0.04 µM. As for `CC(C)C[C@@H]1NC(=O)CSC[C@@H](C(=O)N[C@@H](C)C(N)=O)NC(=O)[C@H](CO)NC(=O)[C@H](C(C)C)NC(=O)[C@H](CC(C)C)NC(=O)[C@H](CCN)NC(=O)[C@H](Cc2ccccc2)N(C)C(=O)[C@H](C)N(C)C(=O)[C@H](CCCNC(=N)N)NC(=O)[C@H](Cc2ccc(-c3ccccc3)cc2)NC(=O)[C@H](C(C)C)NC(=O)[C@H](Cc2c[nH]c3ccccc23)NC(=O)[C@H](CC(=O)O)NC(=O)[C@H](Cc2ccc(O)cc2)NC1=O` [Example 1305] ({CH2CO}-LYDWV[Bip]R[NMeA][NMeF][Dab]LVSCA-NH2; thioether N-14), the figure is 0.06 µM; as for `CC(C)C[C@@H]1NC(=O)[C@H](CCCNC(=N)N)NC(=O)[C@H](Cc2ccccc2)N(C)C(=O)[C@H](C)N(C)C(=O)[C@H](CCCNC(=N)N)NC(=O)[C@H](Cc2ccc(-c3ccccc3)cc2)NC(=O)[C@H](C(C)C)NC(=O)[C@H](Cc2c[nH]c3ccccc23)NC(=O)[C@H](CC(=O)O)NC(=O)[C@H](Cc2ccc(O)cc2)NC(=O)[C@H](Cc2ccccc2)NC(=O)CSC[C@@H](C(=O)NCC(N)=O)NC(=O)[C@H](CC(=O)O)NC(=O)[C@H](C(C)C)NC1=O` [Example 1333] ({CH2CO}-FYDWV[Bip]R[NMeA][NMeF]RLVDCG-NH2; thioether N-14), 0.68 µM; as for `CC(C)C[C@@H]1NC(=O)[C@H](Cc2c[nH]c3ccccc23)NC(=O)[C@H](CC(=O)O)NC(=O)[C@H](Cc2ccc(O)cc2)NC(=O)[C@H](Cc2ccccc2)NC(=O)CSC[C@@H](C(=O)N[C@@H](C)C(N)=O)NC(=O)[C@H](CO)NC(=O)[C@H](C(C)C)NC(=O)[C@H](CC(C)C)NC(=O)[C@H](CC(N)=O)NC(=O)[C@H]2C[C@@H](O)CN2C(=O)[C@H](C)N(C)C(=O)[C@H](C(C)C)NC(=O)[C@H](Cc2ccc(-c3ccccc3)cc2)NC1=O` [Example 1126] ({CH2CO}-FYDWL[Bip]V[NMeA][d(cisHyp)]NLVSCA-NH2; thioether N-14), 0.48 µM. As to `CC(C)C[C@@H]1NC(=O)[C@H](Cc2c[nH]c3ccccc23)NC(=O)[C@H](CC(=O)O)NC(=O)[C@H](Cc2ccc(O)cc2)NC(=O)[C@H](Cc2ccccc2)NC(=O)CSC[C@@H](C(=O)N[C@@H](CN)C(N)=O)NC(=O)[C@H](CO)NC(=O)[C@H](C(C)C)NC(=O)[C@H](CC(C)C)NC(=O)[C@H](CC(N)=O)NC(=O)CN(C)C(=O)[C@H](C)N(C)C(=O)[C@H](C(C)C)NC(=O)[C@H](Cc2ccc(-c3ccccc3)cc2)NC1=O` [Example 1168] ({CH2CO}-FYDWL[Bip]V[NMeA][Sar]NLVSC[Dap]-NH2; thioether N-14), the IC50 was 0.93 µM. As for `CC(C)C[C@@H]1NC(=O)[C@H](Cc2c[nH]c3ccccc23)NC(=O)[C@H](CC(=O)O)NC(=O)[C@H](Cc2ccc(O)cc2)NC(=O)[C@H](Cc2ccccc2)NC(=O)CSC[C@@H](C(=O)N[C@@H](C)C(N)=O)NC(=O)[C@H](CO)NC(=O)[C@H](C(C)C)NC(=O)[C@H](CC(C)C)NC(=O)[C@H](CCCNC(=N)N)NC(=O)[C@H]2CCCN2C(=O)[C@H](C)N(C)C(=O)[C@H](CCCNC(=N)N)NC(=O)[C@H](Cc2ccc(-c3ccccc3)cc2)NC1=O` [Example 1096] ({CH2CO}-FYDWL[Bip]R[NMeA][dP]RLVSCA-NH2; thioether N-14), the figure is 0.28 µM.

`CC(C)C[C@@H]1NC(=O)[C@H](Cc2c[nH]c3ccccc23)NC(=O)[C@H](CC(=O)O)NC(=O)[C@H](Cc2ccc(O)cc2)NC(=O)[C@H](Cc2ccc(OCC(=O)O)cc2)NC(=O)CSC[C@@H](C(=O)NCC(N)=O)NC(=O)[C@H](CO)NC(=O)[C@H](C(C)C)NC(=O)[C@H](CC(C)C)NC(=O)[C@H](CC(N)=O)NC(=O)CN(C)C(=O)[C@H](C)N(C)C(=O)[C@H](C(C)C)NC(=O)[C@H](Cc2ccc(-c3ccccc3)cc2)NC1=O` [Example 1137] ({CH2CO}-Y(Carboxymethyl)YDWL[Bip]V[NMeA][Sar]NLVSCG-NH2; thioether N-14): the IC50 is 0.56 µM. Next, `Cc1ccccc1-c1ccc(C[C@@H]2NC(=O)[C@H](CC(C)C)NC(=O)[C@H](Cc3c[nH]c4ccccc34)NC(=O)[C@H](CC(=O)O)NC(=O)[C@H](Cc3ccc(O)cc3)NC(=O)[C@H](Cc3ccccc3)NC(=O)CSC[C@@H](C(=O)N[C@@H](C)C(N)=O)NC(=O)[C@H](CO)NC(=O)[C@H](C(C)C)NC(=O)[C@H](CC(C)C)NC(=O)[C@H](CC(N)=O)NC(=O)CN(C)C(=O)[C@H](C)N(C)C(=O)[C@H](C(C)C)NC2=O)cc1` [Example 1125] ({CH2CO}-FYDWL[Bip(2'-Me)]V[NMeA][Sar]NLVSCA-NH2; thioether N-14): 0.47 µM. As for `Cc1cccc(C[C@@H]2NC(=O)[C@H](CC(=O)O)NC(=O)[C@H](Cc3ccncc3)NC(=O)[C@H](CN)NC(=O)CSC[C@@H](C(=O)N[C@@H](C)C(N)=O)NC(=O)[C@H]([C@@H](C)O)NC(=O)[C@H](C(C)C)NC(=O)[C@H](CC3CCCCC3)NC(=O)[C@H](CCN)NC(=O)[C@H](Cc3ccccc3)N(C)C(=O)[C@H](CCCN)NC(=O)[C@H](CCC(=O)O)NC(=O)[C@H](Cc3ccc(-c4ccccc4)cc3)NC(=O)C(C(C)C)NC2=O)c1` (stereo partly drawn) [Example 1445] ({CH2CO}-[Dap][4Pal]D[Phe(3-Me)][ξV][Bip]E[Orn][NMeF][Dab][Cha]VTCA-NH2; thioether N-14), the figure is 0.01 µM; as for `CC(C)C[C@@H]1NC(=O)[C@H](CCCCN)NC(=O)[C@H](Cc2ccccc2)N(C)C(=O)[C@H](C)N(C)C(=O)[C@H](CCCNC(=N)N)NC(=O)[C@H](Cc2ccc(-c3ccccc3)cc2)NC(=O)[C@H](C(C)C)NC(=O)[C@H](Cc2c[nH]c3ccccc23)NC(=O)[C@H](CC(=O)O)NC(=O)[C@H](Cc2ccc(O)cc2)NC(=O)[C@H](CCC(N)=O)NC(=O)CSC[C@@H](C(=O)NCC(N)=O)NC(=O)[C@H](CO)NC(=O)[C@H](C(C)C)NC1=O` [Example 1313] ({CH2CO}-QYDWV[Bip]R[NMeA][NMeF]KLVSCG-NH2; thioether N-14), 0.24 µM; as for `CC(C)C[C@@H]1NC(=O)[C@H](CCCNC(=N)N)NC(=O)[C@H](Cc2ccccc2)N(C)C(=O)[C@H](C)N(C)C(=O)[C@H](CCCNC(N)=O)NC(=O)[C@H](Cc2ccc(-c3ccccc3)cc2)NC(=O)[C@H](C(C)C)NC(=O)[C@H](Cc2c[nH]c3ccccc23)NC(=O)[C@H](CC(=O)O)NC(=O)[C@H](Cc2ccc(O)cc2)NC(=O)[C@H](CC(N)=O)NC(=O)CSC[C@@H](C(=O)N[C@@H](C)C(N)=O)NC(=O)[C@H](CCCN)NC(=O)[C@H](C(C)C)NC1=O` [Example 1371] ({CH2CO}-NYDWV[Bip][Cit][NMeA][NMeF]RLV[Orn]CA-NH2; thioether N-14), 0.23 µM.
